From patent publication US20230241014A1, “MEK-INHIBITORS FOR THE TREATMENT OR PREVENTION OF CORONAVIRUS INFECTIONS AND/OR COVID-19 CYTOKINE STORM” (priority 2020, published 2023)

System: VSV pseudotype virus carrying the SARS-CoV-2 Spike protein
Format: cell-based

O=C(NOCC1CC1)c1ccc(F)c(F)c1Nc1ccc(I)cc1Cl [CI-1040, reference compound]
internalization of the VSV pseudotype virus (GFP positive cells): reduction in the internalization
